{"source": "patent US20020111314A1", "about": "“Novel stimulation of gene expression and protein synthesis of heat shock protein 72/73 (Hsp 70)” (The Trustees of Columbia University, priority 1995, published 2002)", "test_system": "Hsp70", "assay": "Hsp70 induction in HepG2 cells ([3H]-leucine labeling, denaturing immunoprecipitation)", "type": "cell-based, human", "details": "for Hsp70 levels after removal of ALLN: 4-hour preincubation", "description": "HepG2 cells were grown up to 95% confluence and then preincubated for 4 hours in a 37° C. incubator with serum-free minimum essential medium (MEM), followed by radiolabeling with 3H-leucine (150 μCi/ml) dissolved in serum-free, leucine-free medium. Preincubation and labeling medium each contained 1.5% bovine serum albumin (BSA) plus different concentrations of ALLN as indicated. After labeling, cells were collected and lysed, and Hsp70 was immunoprecipitated under denaturing conditions as described under Experimental Details. Cell lysates containing an equal amount of TCA-insoluble radioactivity were used for immunoprecipitation. (A): The immunoprecipitates were analyzed by sodium dodecyl sulfate-polyacryamide gel electrophoresis (SDS-PAGE) and fluorography. Numbers on the left-hand side denote molecular markers. (B): The Hsp70 radioactivity was quantitated by scintillation counting and plotted. All the values were presented as means±SD from three individual culture dishes.\nFIGS. 3A-3B: Effects of the other protease inhibitors on Hsp70 biosynthesis in HepG2 cells. HepG2 cells were preincubated in serum-free MEM containing either 1.5% BSA alone (Control), or BSA plus 40 μg/ml of ALLN, 40 μg/ml of ALLM, 50 μg/ml of leupeptin, 50 μg/ml of pepstatin A, 25 μg/ml of E-64d, 1 mM of phenylmethylsulfonyl fluoride (PMSF), 100 KIU/ml of apotinin, 1 mM of Benzamidine (Benz), 200 μM of calpain inhibitor peptide (CIP). Radiolabeling (in the presence of protease inhibitors), lysis and immunoprecipitation were performed as described in FIG. 1. The Hsp70 specific radioactivity (A) and the amount of total incorporated radioactivity (TCA-cpm) (B) were compared with each other. All the values were presented as the mean±SD from three individual culture dishes.\nFIGS. 9A-9B: Effects of proteasome inhibitors on Hsp70 induction. HepG2 cells were preincubated with the proteasome inhibitors MG132 at a final concentration of either 10 μM or 30 μM (A), or lactacystin at 10 μM (B) for 4 hours under conditions described in FIG. 3. These cells were then subjected to radiolabeling (30 min), cell lysis, and immunoprecipitation with anti-Hsp70 antibody. The experiments with MG132 (A) were repeated twice; the effects of lactacystin (B) were studied in triplicate culture dishes.\nALLN, leupeptin, mouse anti-human Hsp72/73 monoclonal antibody, a secondary antibody conjugated with horseradish peroxidase (HRP) (goat anti-rabbit immunoglubin G [IgG]), and rabbit anti-rat IgG antibody were from Boehringer Mannheim Co. Anti-Human Hsp25 and anti-human Hsp60 monoclonal antibodies, ALLM, Calpain inhibitor peptide (CIP), dimethyl sulfoxide (DMSO) and dithiothreitol (DTT) were from Sigma. Human Hsp70 oligonucleotide probe was from Oncogene Science. This oligonucleotide was ^32P labeled at the 5′-end by T4 Kinase, which was from Biolabs. ^32P was from ICN Pharmaceutical Inc. L-[4,5-^3H] leucine was from Amersham Co. Anti-human Bip (immunoglobulin heavy chain binding protein, also called Grp78), anti-human Hsp27, anti-human Hsp60, and anti-human Hsp90 monoclonal antibodies were from Stress Genes. Anti-human Hsp86 and Hsp104 antibodies were from Affinity Bioreagent Inc. Nitrocellular transfer and immobilization membranes were from Schleicher & Schuell, Keene, N.H. RNA extraction kits were from Biotect, Tex. The polyclonal antibody against the human HSF1 protein was a generous gift from Dr. Carl Wu of the National Institute of Health (Rabindran, et al., 1993). Ethylene glycol bis(succunimidylsuccinate) (EGS) was from Pierce. Cbz-leucyl-leucyl-leucinal (MG132) was a gift of Dr. H. Ploegh at the Massachusetts Institute of Technology. All the other tissue culture supplies and chemicals were obtained from supplies as previously described (Dixon, et al., 1991). The HepG2 cell culture conditions were maintained as previously described (Dixon, et al., 1991).", "note": "Square brackets hold non-standard residues; d marks the D form. Peptide text beside a SMILES is read from it. Nle = CCCC[C@H](N)C(=O)O"}
{"smiles": "CCCC[C@@H](C=O)NC(=O)[C@H](CC(C)C)NC(=O)[C@H](CC(C)C)NC(C)=O", "note": "[ALLN, N-acetyl-leucyl-leucyl-norleucinal] (Ac-Leu-Leu-[Nle]-aldehyde)", "values": [{"measurement": "Hsp70 levels after removal of ALLN", "setting": "HepG2, end of a 2-hour wash", "value": 25, "unit": "fold"}, {"measurement": "Hsp70 levels after removal of ALLN", "setting": "HepG2, end of a 6-hour wash", "value": 8, "unit": "fold"}, {"measurement": "Hsp70 levels after removal of ALLN", "setting": "HepG2, end of an 8-hour wash", "value": 4, "unit": "fold"}, {"measurement": "increment of newly synthesized Hsp70 levels compared with untreated cells", "setting": "HepG2, 30 min labeling, ALLN 40 μg/ml, data from several experiments", "value": "~30", "unit": "fold"}, {"measurement": "response of cellular Hsp70 levels to ALLN dose", "setting": "HepG2, 4 hours, different doses (FIG. 1)", "value": "dose-dependent response"}, {"measurement": "induction of Hsp70 by protease inhibitors (FIG. 3A)", "setting": "HepG2, 4 h pre-treatment, ALLN 40, ALLM 40, leupeptin 50, pepstatin A 50, E-64d 25 μg/ml, PMSF 1 mM, aprotinin 100 KIU/ml", "value": "significantly induce"}, {"measurement": "increase in rate of incorporation of [3H]-leucine into Hsp70", "setting": "HepG2, 4 h preincubation with ALLN 40 μg/ml, labeling 10-60 min, every time point", "value": "about 25 fold"}, {"measurement": "Hsp70 levels induced", "setting": "HepG2, low concentration of ALLN 10 μg/ml, 4 h pre-treatment", "value": "more than 9 fold"}, {"measurement": "induction of Hsp70 levels above baseline", "setting": "HepG2 cells and human endothelial cells", "value": "up to 30 fold"}]}
